From patent US10100061B2, “Oxazepine compound and agricultural/horticultural insecticide containing said compound as active ingredient, and method for using the same” (NIHON NOHYAKU CO., LTD., priority 2014, dated 2018)

Experiments:
[1] = test system: Small Brown Planthopper (Laodelphax Striatellus); assay: Test of insecticidal efficacy against small brown planthopper (Test Example 2); assay type: in vivo; conditions: 500 ppm, rice plants soaked 30 seconds, third-instar larvae, eight days after inoculation; criteria same as in Test Example 1
Excerpt: Test of Insecticidal Efficacy Against Small Brown Planthopper (Laodelphax Striatellus)

[2] = test system: Green Peach Aphid (Myzus Persicae); assay: Test of preventive value against green peach aphid (Test Example 1); assay type: in vivo; conditions: 500 ppm, sprayed over stems and leaves of potted Chinese cabbages, sixth day after spraying
Protocol: Test of Preventive Value Against Green Peach Aphid (Myzus Persicae)
Chinese cabbages were planted in plastic pots, each with a size of 8 cm in diameter and 8 cm in height, after which green peach aphids were propagated and the number of parasitic insects was examined in each pot. An oxazepine compound or salt thereof expressed by General Formula (I) according to the present invention was dispersed in water and the dispersion was diluted to 500 ppm in the form of a reagent, after which the reagent was sprayed over stems and leaves of potted Chinese cabbages and let dry under wind, and the pots were kept in a greenhouse, and on the sixth day after the reagent was sprayed, the number of green peach aphids living parasitically on each Chinese cabbage was examined and the preventive value was calculated based on the formula below, and judgment was made according to the criteria below. Preventive value=100−{(T×Ca)/(Ta×C)}×100 [Mathematical Formula 1] • Ta: Number of parasitic insects inside the treatment area before spraying • T: Number of parasitic insects inside the treatment area after spraying • Ca: Number of parasitic insects inside the non-treatment area before spraying • C: Number of parasitic insects inside the non-treatment area after spraying Judgment Criteria • A - - - Preventive value: 100% • B - - - Preventive value: 99%˜90% • C - - - Preventive value: 89%˜80% • D - - - Preventive value: 79%˜50%

Compound	Corrected insect mortality, judgment [1]	Preventive value, judgment [2]
CN1C(=O)c2nn(-c3cccnc3)cc2Oc2cccc(F)c21 [1-19]	A to D	A to D
Nc1ccc2c(c1)NC(=O)c1nn(-c3cccnc3)cc1O2 [1-44]	A to D	A to D
N#CCN1C(=O)c2nn(-c3cccnc3)cc2Oc2ccc(F)cc21 [1-17]	A to D	A to D
COCCN1C(=O)c2nn(-c3cccnc3)cc2Oc2ccccc21 [1-68]	A to D	A to D
O=C1c2nn(-c3cccnc3)cc2Oc2ccccc2N1CCc1ccccc1 [1-62]	A to D	A to D
CN1C(=O)c2nn(-c3cccnc3)cc2Oc2ccc(N)cc21 [1-45]	A to D	A to D
CN(C)c1ccc2c(c1)N(C)C(=O)c1nn(-c3cccnc3)cc1O2 [1-46]	A to D	A to D
CN1C(=O)c2nn(-c3cccnc3)cc2Oc2cc(C#N)ccc21 [1-47]	A to D	A to D
O=C(CN1C(=O)c2nn(-c3cccnc3)cc2Oc2ccccc21)c1ccc(Cl)cc1 [1-76]	A to D	A to D
CN1C(=O)c2nn(-c3cccnc3)cc2Oc2cnccc21 [5-2]	A to D	A to D
ClC1=Nc2ccccc2Oc2cn(-c3cccnc3)nc21 [11-1]	A to D	A to D
COCN1C(=O)c2nn(-c3cccnc3)cc2Oc2ccccc21 [1-67]	A to D	A to D
COc1ccc2c(c1)Oc1cn(-c3cccnc3)nc1C(=O)N2CC#N [1-42]	A to D	A to D
CS(=O)(=O)CN1C(=O)c2nn(-c3cccnc3)cc2Oc2ccc(F)cc21 [8-49]	A to D	A to D
COc1ccc2c(c1)Oc1cn(-c3cccnc3)nc1C(=O)N2 [1-39]	A to D	A to D
CN1C(=O)c2nn(-c3cccnc3)cc2Oc2c(F)cccc21 [1-7]	A to D	A to D
NC1=Nc2ccccc2Oc2cn(-c3cccnc3)nc21 [11-5]	A to D	A to D
CN1C(=O)c2nn(-c3cccnc3)cc2Oc2c(Cl)cccc21 [1-23]	A to D	A to D
O=C1Nc2ccccc2Oc2cn(-c3cccnc3)nc21 [Compound No. 1-1, 2-(pyridine-3-yl)-2H-benzo [b]pyrazolo [3,4-f][1,4]oxazepine-10 (9H)-one]	A to D	A to D
C#CCN1C(=O)c2nn(-c3cncc(F)c3)cc2Oc2cc(F)ccc21 [1-81]	A to D	A to D
CN1C(=O)c2nn(-c3cccnc3)cc2Oc2ccncc21 [12-1]	A to D	A to D
COC(=O)N1C(=O)c2nn(-c3cccnc3)cc2Oc2ccccc21 [8-13]	A to D	A to D
ONC1=Nc2ccccc2Oc2cn(-c3cccnc3)nc21 [11-9]	A to D	A to D
CN1C(=O)c2nn(-c3cncc(F)c3)cc2Oc2cc(F)ccc21 [1-80]	A to D	A to D

Compound	Corrected insect mortality, judgment [1]	Preventive value, judgment [2]
COc1ccc2c(c1)Oc1cn(-c3cccnc3)nc1C(=O)N2C [1-40]	A to D	A to D
Fc1ccc2c(c1)NC(=S)c1nn(-c3cccnc3)cc1O2 [2-5]	A to D	A to D
C#CCN1C(=O)c2nn(-c3cccnc3)cc2Oc2cc(OC)ccc21 [1-41]	A to D	A to D
O=C1Nc2cc(Cl)ccc2Oc2cn(-c3cccnc3)nc21 [8-54]	A to D	A to D
COC(CN1C(=O)c2nn(-c3cccnc3)cc2Oc2ccccc21)OC [8-10]	A to D	A to D
CN1C=COc2cn(-c3cccnc3)nc2C1=O [7-2]	A to D	A to D
C#CCN1C(=O)c2nn(-c3cccnc3)cc2Oc2cc(C)ccc21 [1-32]	A to D	A to D
O=C1Nc2cc(F)ccc2Oc2cn(-c3cccnc3)nc21 [1-14]	A to D	A to D
C#CCN1C(=O)c2nn(-c3cccnc3)cc2Oc2cc(C#N)ccc21 [1-48]	A to D	A to D
Cc1nn(C)c2c1N(CC#N)C(=O)c1nn(-c3cccnc3)cc1O2 [14-5]	A to D	A to D
C#CCN1C(=O)c2nn(-c3cccnc3)cc2Oc2ccc(Cl)cc21 [8-56]	A to D	A to D
O=C1Nc2ccccc2Oc2c1nn(-c1cccnc1)c2F [9-3]	A to D	A to D
O=C1c2nn(-c3cccnc3)cc2Oc2cc(F)ccc2N1CCCCBr [8-34]	A to D	A to D
CN1C(=O)c2nn(-c3cccnc3)cc2Oc2cc(Cl)ccc21 [1-27]	A to D	A to D
CC(C)(C)OC(=O)CN1C(=O)c2nn(-c3cccnc3)cc2Oc2ccccc21 [1-75]	A to D	A to D
CSCN1C(=O)c2nn(-c3cccnc3)cc2Oc2ccccc21 [8-2]	A to D	A to D
CN1C(=O)c2nn(-c3cccnc3)cc2Oc2nccnc21 [13-1]	A to D	A to D
c1cncc(-n2cc3c(n2)CNc2ccccc2O3)c1 [3-1]	A to D	A to D
CN1C(=O)c2nn(-c3ccc[n+]([O-])c3)cc2Oc2ccccc21 [9-1]	A to D	A to D
O=C1c2nn(-c3cccnc3)cc2Oc2ccc(F)cc2N1CCCCBr [8-40]	A to D	A to D
C=CCN1C(=O)c2nn(-c3cccnc3)cc2Oc2ccc(F)cc21 [8-35]	A to D	A to D
N#CCN1C(=O)c2nn(-c3cccnc3)cc2Oc2cc(Cl)ccc21 [1-29]	A to D	A to D
CC(=O)N1C(=O)c2nn(-c3cccnc3)cc2Oc2ccccc21 [1-73]	A to D	A to D
